The target in one data set is 53BP1 (Homo sapiens, UniProt Q12888). Particulars: transiently expressed in cells; cited from earlier work.
Data set [1] concerns CD34+ HSPCs. In words: editing of CD34+ HSPCs with purified i53 variant proteins and HBB-UBC-GFP AAV donor; flow cytometry. It is filed as cell-based, human. To be noted: for increase in levels of GFP integration over control edited cells: HBB-UBC-GFP AAV MOI 2500. The protocol:
(§1) Chemically-modified single guide RNAs (sgRNAs) used to edit CD34+ HSPCs at the HBB locus were purchased from Synthego. The sgRNA sequences were modified by adding 2′-O-methyl-3′-phosphorothioate at the three terminal nucleotides of the 5′ and 3′ ends. The target sequence for the HBB sgRNA is as follows: HBB: 5′[…]-3′ (SEQ ID NO: 74). Cas9 protein (SpyFi Cas9) was purchased from Aldevron. The RNPs were complexed at a Cas9:sgRNA molar ratio of 1:2.5 at 25° C. for 10-15 min prior to electroporation. Cells were collected, counted, and pelleted at 180 g×7 min. The cell pellets were resuspended in Maxcyte buffer with complexed RNPs and electroporated using a Maxcyte EXPERT ATx Nucleofector. After electroporation cells were plated at 3.5×10^5 cells/mL in media supplemented with cytokines and the desired AAV donor added at 5.0×10^2-2.5×10^4 vector genomes/cell. 24 h after nucleofection, cells were spun down, washed once with media, and seeded into AAV-free media at a density of 3.5×10^5 cells/mL.
(§2) CD34+ HPSCs were edited with protein variants 3 days post thaw and were harvested 2 days post nucleofection for NGS analysis or 3-5 days post nucleofection for GFP expression analysis. Editing reactions with proteins at a given concentration were repeated in duplicate or triplicate (either using the same CD34+ HSPC donor or across multiple donors).
Rates of targeted integration of the HBB UBC GFP donor were measured using a Beckman Coulter CytoFLEX. DAPI (Miltenyi Biotec) was used to discriminate live and dead cells. Flow cytometry data were analyzed using FlowJo 10 software.
For orientation: In flow cytometry, cells or beads pass a laser one at a time.

Data set [2] relates to HDR-mediated integration of a donor sequence. In words: i53 as protein-based additive, enhancement of HDR-mediated integration of a donor sequence (data not shown). It is filed as cell-based. Particulars: 1.5 mg/mL purified i53 in nucleofection solution, relatively inconsistent results.
In data set [3] the test system is CD34+ HSPCs. In words: editing at the off-target editing site OT-1 (NGS-based analysis). It is filed as cell-based, human. Particulars: protein 0.8 mg/mL. The text has this:
Editing outcomes at the off-target (OT) editing site OT-1 can be assessed using an assay very similar to the one described above for measuring the targeted integration of HBB-SNP. The off-target editing site was identified via three different methods (in silico prediction,^13 Circle-Seq,^14 and Guide-Seq^15) and was confirmed to be off-target editing site of significance via amplicon sequencing. The workflow for the OT-1 amplicon sequencing assay is very similar to the on-target sequencing assay but involves one less PCR step. A small 166 base pair sequence encompassing the OT-1 editing site is amplified directly from genomic DNA in the first PCR and then tagged with barcode and adapter sequences in a second PCR. The resulting PCR products are sized, quantified, and prepared for sequencing in the same manner as for the HBB on-target sequencing assay. The sequencing data is also processed using the Crispresso2 pipeline,^3 but in contrast to the on-target sequencing assay no homology direct repair outcomes are present at OT-1, only % WT and % INDELs are reported.

In data set [4] the test system is CD34+ HSPCs. In words: editing of CD34+ HSPCs with purified i53 variant proteins and HBB-SNP AAV donor; NGS of editing outcomes. Type of data set: cell-based, human. To be noted: for increase in levels of HDR corrected alleles over control edited cells: FIG. 13; for increase in levels of HDR corrected alleles over DM: L67R/L67H value is the average of both. The protocol:
as §1, §2
24 h after nucleofection, cells were spun down, washed with media, and seeded into AAV and DNAPKi-free media at a density of 3.5×10^5 cells/mL.
The frequency of homology directed repair (HDR) and other editing outcomes at HBB were measured using Next Generation Sequencing (NGS). An NGS assay was developed to determine the frequency of at the HBB locus by quantifying the total number of alleles that have been either: (1) not edited (% WT), (2) changed by HDR to incorporate sequence differences present in the AAV repair template (% HR), or (3) mutated during the genome correction process resulting in a gene that produces mutant β-globin (% INDELs).
For this assay, genomic DNA was harvested from cells using a Quick-DNA 96 Plus Kit (Zymo Research). The DNA concentration was measured using a Qubit 1×dsDNA BR assay kit (ThermoFisher). Purified genomic DNA was then used to amplify the HBB locus via polymerase chain reaction (PCR). The PCR products were diluted using nuclease-free water to serve as the template DNA for targeted NGS library prep. A second PCR with primers carrying partial Illumina adapters was performed to amplify a 142 base pair sequence that includes the region of the HBB locus that is to be corrected during the genome correction process. The PCR products were diluted again to serve as templates in a third PCR reaction using Nextera XT index primers. This third PCR reaction was used to assign unique identifiers to each sample and to add the full length adapter sequences necessary for Illumina sequencing. The size of the PCR products was assessed on an Agilent BioAnalyzer. PCR products were then pooled, purified using a Qiagen PCR purification kit, and quantified using PicoGreen in order to ready the PCR products for sequencing.
Based on the PicoGreen concentration, the library of pooled PCR products was diluted to a final concentration of 4 nM. Sequencing was performed on a MiSeq system using an Illumina MiSeq sequencing reagent kit (V2, 300 cycles). A 10% PhiX control library was added to the sample library to improve sequence diversity and to allow for error rate measurements. The library was denatured and loaded at […] onto the sequencing reagent cartridge. The sequencing entails paired-end 150 base pair reads and dual indexing reads. The sequencing data was demultiplexed based on the sample indexes provided and FASTQ files for each sample are generated.
The FASTQ files were processed using the CRISPResso2 pipeline^3. The data was reported as % WT, % corrected by HR, and % INDELs. […]

For a further data set, the target named is 53BP1 Tudor domain (Homo sapiens, UniProt Q12888). To be noted: previously reported; mutants relative to i53; cited from earlier work.
Chain of 53BP1 Tudor domain (Q12888 1484-1603 limits assumed): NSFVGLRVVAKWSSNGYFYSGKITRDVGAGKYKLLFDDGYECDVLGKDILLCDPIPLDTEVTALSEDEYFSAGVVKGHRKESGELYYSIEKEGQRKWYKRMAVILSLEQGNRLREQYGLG

Chain of 53BP1 (Q12888 whole entry): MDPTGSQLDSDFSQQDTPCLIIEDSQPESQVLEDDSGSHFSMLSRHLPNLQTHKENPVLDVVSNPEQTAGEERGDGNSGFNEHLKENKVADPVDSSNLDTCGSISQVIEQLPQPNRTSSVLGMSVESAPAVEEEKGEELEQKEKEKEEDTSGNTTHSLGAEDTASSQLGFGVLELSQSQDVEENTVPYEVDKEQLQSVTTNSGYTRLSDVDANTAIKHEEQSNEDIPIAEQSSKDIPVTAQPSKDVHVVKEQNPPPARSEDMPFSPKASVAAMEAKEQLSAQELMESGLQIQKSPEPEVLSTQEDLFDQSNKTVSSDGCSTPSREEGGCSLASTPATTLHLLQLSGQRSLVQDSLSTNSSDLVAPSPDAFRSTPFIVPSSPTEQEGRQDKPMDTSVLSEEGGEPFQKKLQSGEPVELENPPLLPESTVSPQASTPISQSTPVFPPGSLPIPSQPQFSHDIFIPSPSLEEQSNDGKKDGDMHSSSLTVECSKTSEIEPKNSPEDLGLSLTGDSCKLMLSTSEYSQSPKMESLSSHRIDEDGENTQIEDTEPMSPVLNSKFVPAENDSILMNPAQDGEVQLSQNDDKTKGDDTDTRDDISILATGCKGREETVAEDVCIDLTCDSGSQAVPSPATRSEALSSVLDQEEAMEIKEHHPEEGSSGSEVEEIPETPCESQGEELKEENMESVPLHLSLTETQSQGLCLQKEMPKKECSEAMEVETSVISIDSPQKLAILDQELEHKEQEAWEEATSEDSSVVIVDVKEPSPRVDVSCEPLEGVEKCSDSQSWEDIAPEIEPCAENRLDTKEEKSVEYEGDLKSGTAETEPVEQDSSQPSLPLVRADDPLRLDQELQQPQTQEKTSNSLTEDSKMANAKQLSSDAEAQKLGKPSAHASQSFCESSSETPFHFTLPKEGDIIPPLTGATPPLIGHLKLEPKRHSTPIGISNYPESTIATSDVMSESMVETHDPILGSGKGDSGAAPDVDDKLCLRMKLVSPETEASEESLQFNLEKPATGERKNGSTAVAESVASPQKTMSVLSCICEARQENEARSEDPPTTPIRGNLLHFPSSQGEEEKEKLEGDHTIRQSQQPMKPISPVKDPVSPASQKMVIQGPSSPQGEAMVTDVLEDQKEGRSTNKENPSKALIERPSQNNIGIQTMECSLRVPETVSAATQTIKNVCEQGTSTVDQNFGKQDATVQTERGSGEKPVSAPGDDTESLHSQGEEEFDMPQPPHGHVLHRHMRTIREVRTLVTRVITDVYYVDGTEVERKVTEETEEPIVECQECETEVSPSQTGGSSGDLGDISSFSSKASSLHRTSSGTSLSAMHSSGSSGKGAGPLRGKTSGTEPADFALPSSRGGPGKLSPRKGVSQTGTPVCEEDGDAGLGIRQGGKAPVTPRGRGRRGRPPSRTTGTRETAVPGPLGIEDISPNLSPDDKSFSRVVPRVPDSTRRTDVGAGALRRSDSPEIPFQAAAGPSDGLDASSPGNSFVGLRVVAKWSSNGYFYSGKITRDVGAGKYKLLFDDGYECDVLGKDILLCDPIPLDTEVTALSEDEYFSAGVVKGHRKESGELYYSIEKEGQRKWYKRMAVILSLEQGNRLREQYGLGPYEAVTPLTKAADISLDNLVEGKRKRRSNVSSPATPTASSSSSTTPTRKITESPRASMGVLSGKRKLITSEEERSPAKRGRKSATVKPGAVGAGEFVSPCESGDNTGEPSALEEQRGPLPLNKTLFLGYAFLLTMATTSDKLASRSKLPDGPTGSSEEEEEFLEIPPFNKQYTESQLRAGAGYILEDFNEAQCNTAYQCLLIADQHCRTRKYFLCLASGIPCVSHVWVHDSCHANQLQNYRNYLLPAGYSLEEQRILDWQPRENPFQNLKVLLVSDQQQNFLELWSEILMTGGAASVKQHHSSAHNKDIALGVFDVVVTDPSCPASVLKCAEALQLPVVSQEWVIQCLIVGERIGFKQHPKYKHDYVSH

In the case of “i53: engineered ubiquitin variant, known inhibitor of 53BP1, selectively binds the Tudor domain of 53BP1 [reference compound]”, the “recruitment of 53BP1 to DSBs” value in the data set with 53BP1 is “block recruitment of 53BP1 to DSBs”. Further, the “increase of % HDR over DM” value in the data set with CD34+ HSPCs [1] (HBB-UBC-GFP AAV MOI 1250, protein 0.4 mg/mL, GFP integration in live cells, L67R/L67H value is the average of both) is on record as 19%. In addition, the “increase in levels of GFP integration over control edited cells” value in the data set with CD34+ HSPCs [1] (protein 0.1 mg/mL) was found to be 5%; in the data set on CD34+ HSPCs [1] (protein 0.2 mg/mL), 18%; in the data set with CD34+ HSPCs [1] (protein 0.4 mg/mL), 29%; in the data set on CD34+ HSPCs [1] (protein 0.8 mg/mL) it was 45%. Further, the “increases in HDR-mediated integration of a donor sequence” value in data set [2] was 10-20%. Also, the “frequency of INDELS at the off-target editing site OT-1” value in the data set with CD34+ HSPCs [3] is recorded as “not significantly increase”. For the same substance, the “increase in levels of HDR corrected alleles over control edited cells” value was 18% with CD34+ HSPCs [4] (MOI 312.5, protein 0.1 mg/mL); 24% in the data set with CD34+ HSPCs [4] (MOI 312.5, protein 0.2 mg/mL); 45% in the data set on CD34+ HSPCs [4] (MOI 312.5, protein 0.4 mg/mL); 3% with CD34+ HSPCs [4] (MOI 2500, protein 0.1 mg/mL); 5% in the data set with CD34+ HSPCs [4] (MOI 2500, protein 0.2 mg/mL); 18% in the data set with CD34+ HSPCs [4] (MOI 2500, protein 0.4 mg/mL). Moreover, the “levels of HDR corrected alleles (normalized by total edited alleles), dose response” value in the data set with CD34+ HSPCs [4] (FIG. 26, protein 0.2, 0.4 and 0.8 mg/mL, MOIs 312.5 and 2500) was “decrease significantly as the protein concentrations decreased”. The “increase in levels of HDR corrected alleles over DM” value was 14% in the data set on CD34+ HSPCs [4] (HBB-SNP AAV MOI 312.5, protein 0.4 mg/mL) and 15% with CD34+ HSPCs [4] (HBB-SNP AAV MOI 2500, protein 0.4 mg/mL). Moreover, the “binding to the 53BP1 Tudor domain” value with 53BP1 Tudor domain was “selectively bind”.

The values are drawn from patent publication US20260207777A1, “IMPROVED PEPTIDE INHIBITORS OF P53 BINDING PROTEIN 53BP1” (KAMAU THERAPEUTICS, INC., priority 2022, published 2026).
